Test results as given in patent US10821115B2, “Compounds that inhibit Mcl-1 protein” (priority 2017, dated 2020).
Like-named read-outs stand apart in the source and are kept apart here.

Key:
[1] = biological target: recombinant human Mcl-1 (residues 171-327) / Bim interaction (Homo sapiens (Human), UniProt Q07820); assay: biochemical; format: binding; details: TR-FRET, Mcl-1(171-327) / biotin-Bim (51-76); read-out: Mcl-1 HTRF IC50
[2] = system: human multiple myeloma cell line, OPM-2; assay: Cell viability assay (OPM-2 10 FBS), CellTiter-Glo; format: cell-based
How it was run: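 Steps: plate cells at 3000/well in 10% FBS growth medium, add serially diluted compound, incubate 16 h at 37 °C with 5% CO2, add detection reagent and read luminescence after 25 min. A 4-parameter logistic model gives IC50.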

[3] = read-out: OPM-2 10% FBS IC50 IP, OPM-2 cells, 10% FBS, 16 h, CellTiter-Glo
[4] = Homo sapiens, OPM-2, 16 h, read-out: OPM-2 10% FBS IC50 IP, OPM-2 cells, 10% FBS, 16 h, CellTiter-Glo

Chain of recombinant human Mcl-1 (residues 171-327) / Bim interaction (Q07820 171-327): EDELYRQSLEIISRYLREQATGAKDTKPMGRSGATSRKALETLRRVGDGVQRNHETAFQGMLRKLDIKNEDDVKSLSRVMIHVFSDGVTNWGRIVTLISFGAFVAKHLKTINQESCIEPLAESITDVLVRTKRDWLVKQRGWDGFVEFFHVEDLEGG

SMILES	IC50 [1] [nM]	IC50 [2, 3] [nM]	IC50 [2, 4] [nM]
C[C@@H]1[C@@H](C)C/C=C/[C@@](O)(CC(=O)N2CCCC2)[C@@H]2CC[C@H]2CN2C[C@@]3(CCCc4cc(Cl)ccc43)COc3ccc(cc32)C(=O)NS1(=O)=O [Example 100253, (1S,3′R,6′R,7′S,8′E,11′S,12′R)-6-chloro-7′-hydroxy-11′,12′-dimethyl-7′-(2-oxo-2-(1-pyrrolidinyl)ethyl)-3,4-dihydro-2H,15′H-spiro[naphthalene-1,22′-[20]oxa[13]thia[1,14]diazatetracyclo [14.7.2.0~3,6~.0~19,24~]pentacosa[8,16,18,24]tetraen]-15′-one 13′,13′-dioxide]	0.149	544	–
CO[C@@]1(C2SCCCS2)CCC[C@H](C)[C@@H](C)S(=O)(=O)NC(=O)c2ccc3c(c2)N(C[C@@H]2CC[C@H]21)C[C@@]1(CCCc2cc(Cl)ccc21)CO3 [Example 100254, (1S,3′R,6′R,7′S,11′S,12′R)-6-chloro-7′-(1,3-dithian-2-yl)-7′-methoxy-11′,12′-dimethyl-3,4-dihydro-2H,15′H-spiro[naphthalene-1,22′-[20]oxa[13]thia[1,14]diazatetracyclo [14.7.2.0~3,6~.0~19,24~]pentacosa[16,18,24]trien]-15′-one 13′,13′-dioxide]	4.07	2150	–
C[C@@H]1[C@@H](C)CCC[C@](C#N)(NC(=O)c2ccccc2)[C@@H]2CC[C@H]2CN2C[C@@]3(CCCc4cc(Cl)ccc43)COc3ccc(cc32)C(=O)NS1(=O)=O [Example 100255, N-((1S,3′R,6′R,7′S,11′S,12′R)-6-chloro-7′-cyano-11′,12′-dimethyl-13′,13′-dioxido-15′-oxo-3,4-dihydro-2H-spiro[naphthalene-1,22′-[20]oxa[13]thia[1,14]diazatetracyclo [14.7.2.0~3,6~.0~19,24~]pentacosa[16,18,24]trien]-7′-yl)benzamide]	14.4	–	5020
C[C@@H]1[C@@H](C)CCC[C@](CO)(NC(=O)c2ccccc2)[C@@H]2CC[C@H]2CN2C[C@@]3(CCCc4cc(Cl)ccc43)COc3ccc(cc32)C(=O)NS1(=O)=O [Example 100256, N-((1S,3′R,6′R,7′S,11′S,12′R)-6-chloro-7′-(hydroxymethyl)-11′,12′-dimethyl-13′,13′-dioxido-15′-oxo-3,4-dihydro-2H-spiro[naphthalene-1,22′-[20]oxa[13]thia[1,14]diazatetracyclo [14.7.2.0~3,6~.0~19,24~]pentacosa[16,18,24]trien]-7′-yl)benzamide]	5.04	–	1200
C[C@@H]1[C@@H](C)C/C=C/[C@@](O)(CC(=O)N2CCCCC2)[C@@H]2CC[C@H]2CN2C[C@@]3(CCCc4cc(Cl)ccc43)COc3ccc(cc32)C(=O)NS1(=O)=O [Example 100257, (1S,3′R,6′R,7′S,8′E,11′S,12′R)-6-chloro-7′-hydroxy-11′,12′-dimethyl-7′-(2-oxo-2-(1-piperidinyl)ethyl)-3,4-dihydro-2H,15′H-spiro[naphthalene-1,22′-[20]oxa[13]thia[1,14]diazatetracyclo [14.7.2.0~3,6~.0~19,24~]pentacosa[8,16,18,24]tetraen]-15′-one 13′,13′-dioxide]	0.18	80	–
C[C@@H]1[C@@H](C)C/C=C/[C@@](O)(CC(=O)N2CCCCC2)[C@@H]2CC[C@H]2CN2C[C@@]3(CCCc4cc(Cl)ccc43)COc3ccc(cc32)C(=O)NS1(=O)=O [Example 100258, (1S,3′R,6′R,7′S,8′E,11′S,12′R)-6-chloro-7′-hydroxy-11′,12′-dimethyl-7′-(2-oxo-2-(1-piperidinyl)ethyl)-3,4-dihydro-2H,15′H-spiro[naphthalene-1,22′-[20]oxa[13]thia[1,14]diazatetracyclo [14.7.2.0~3,6~.0~19,24~]pentacosa[8,16,18,24]tetraen]-15′-one 13′,13′-dioxide]	0.553	519	–
